Experimental data published in US5814622A, “Compounds derived from boronic acid” (Adir et Compagnie, priority 1996, dated 1998).

Experiments:
[1] = target: plasminogen tissue activator (t-PA) (Homo sapiens, UniProt P00750); assay: Inhibition of plasminogen tissue activator (t-PA); type: biochemical; conditions: t-PA 2 nM, substrate H-D-Ile-Pro-Arg-pNA 0.48 mM, 20° C., pH 7.4
[2] = tested on: human plasma (thrombin time); assay: Anticoagulant activity: thrombin time (TT) in human plasma; type: biochemical; conditions: 37° C., 2 min preincubation
Protocol: (§1) Anticoagulant activity, measurement of the thrombin time and the activated cephalin time in man In order to evaluate the anticoagulant activity of the compounds of the invention, the thrombin time (TT) and the activated cephalin time (ACT) were determined in samples of human plasma. An ST4 coagulometer (Diagnostica Stago, France) was used. […] The TT is determined with the Thrombin Prest reagent and the ACT with the Automat […] reagent. The inhibitor or the solvent (10 μl) is added to the plasma (90 μl), then the mixture is incubated for 2 minutes at 37° C. 100 μl of Thrombin […]) or of Automat […]) are added while starting the chronometer. […] The activity of an antagonist is evaluated by its capacity to prolong the TT and the ACT relative to the control.

human thrombin = target: T1, human thrombin (Homo sapiens, UniProt P00734); assay: Inhibition of human thrombin (fibrinogen to fibrin); type: biochemical; conditions: human thrombin 0.7 nM, purified human fibrinogen, 20° C., pH 7.4
T1 construct: human thrombin (Sigma, specific activity 3230 UNIH/mg); purchased Sigma

[3] = tested on: plasma from the dogs (ACT); assay: ACT in dogs after oral administration; type: in vivo; conditions: dog, 5 mg/kg
Protocol: (§2) Male or female dogs weighing 11-28 kg are treated orally with the products of the invention (5 mg/kg) or with the reference substance, DUP 714, at a concentration of 2.5 mg/kg. The coagulation times (TT, ACT) are determined in samples of plasma from the dogs 10 min before and 30 min, 1 hour, 2 hours, 4 hours and 6 hours after administration of the products. […] The number of platelets is also determined in each sample using a T450 counter (Coultronics).
(§3) The values show the number of times that the initial time is increased.

[4] = tested on: human plasma (activated cephalin time); assay: Anticoagulant activity: activated cephalin time (ACT) in human plasma; type: biochemical; conditions: 37° C., 2 min preincubation
Protocol: as §1

Plasmin = target: T2, Plasmin (Homo sapiens, UniProt P00747); assay: Inhibition of plasmin; type: biochemical; conditions: purified human plasmin 2 nM, substrate <Glu-Phe-Lys-pNA 0.05 mM, 20° C., pH 7.4
T2 construct: Products Thrombin Plasmin t-PA u-PA; purchased Stage [sic]

platelets = assay: Thrombopenic activity after oral administration to dogs; type: in vivo; conditions: dog, 5 mg/kg, 1 hour
Protocol: Male or female dogs weighing 11-28 kg are treated orally with the products of the invention (5 mg/kg) or with the reference substance, DUP 714, at a concentration of 2.5 mg/kg. […] The number of platelets is also determined in each sample using a T450 counter (Coultronics).
Under the conditions of our experiments, the number of platelets before the treatment is about 300,000 platelets/μl; the TT is about 19 seconds and the ACT is about 18 seconds.

human urokinase (u-PA) = target: T3, human urokinase (u-PA) (Homo sapiens, UniProt P00749); assay: Inhibition of urokinase (u-PA); type: biochemical; conditions: purified human u-PA 2 nM, substrate <Glu-Gly-Arg-pNA 0.56 mM, 20° C., pH 7.4
T3 construct: purchased Sigma

[5] = tested on: plasma from the dogs (TT); assay: TT in dogs after oral administration; type: in vivo; conditions: dog, 5 mg/kg
Protocol: as §2, §3

thrombin = conditions: prior knowledge; cited from earlier work

T2 sequence (P00747 581-810 limits assumed): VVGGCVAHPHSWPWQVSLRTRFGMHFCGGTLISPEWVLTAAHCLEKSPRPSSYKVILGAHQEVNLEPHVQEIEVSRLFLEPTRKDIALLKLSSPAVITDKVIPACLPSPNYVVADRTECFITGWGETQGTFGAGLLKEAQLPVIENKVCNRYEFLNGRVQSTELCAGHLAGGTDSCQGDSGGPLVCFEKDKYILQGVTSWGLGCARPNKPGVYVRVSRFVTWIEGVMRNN
T2 sequence (P00747 97-580 partner limits assumed): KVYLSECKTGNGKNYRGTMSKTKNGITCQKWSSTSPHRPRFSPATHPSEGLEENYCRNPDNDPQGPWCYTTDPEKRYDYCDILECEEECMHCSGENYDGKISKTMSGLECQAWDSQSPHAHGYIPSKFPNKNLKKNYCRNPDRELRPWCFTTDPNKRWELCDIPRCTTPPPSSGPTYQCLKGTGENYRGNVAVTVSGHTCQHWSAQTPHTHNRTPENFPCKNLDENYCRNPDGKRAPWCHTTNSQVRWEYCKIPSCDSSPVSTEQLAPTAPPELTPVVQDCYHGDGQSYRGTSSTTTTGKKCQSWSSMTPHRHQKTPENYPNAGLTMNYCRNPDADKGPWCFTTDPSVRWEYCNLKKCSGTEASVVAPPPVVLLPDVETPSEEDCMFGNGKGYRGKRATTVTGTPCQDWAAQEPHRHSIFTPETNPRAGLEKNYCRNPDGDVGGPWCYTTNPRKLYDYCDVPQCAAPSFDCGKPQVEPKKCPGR
Sequence of plasminogen tissue activator (t-PA) (P00750 23-562 limits assumed): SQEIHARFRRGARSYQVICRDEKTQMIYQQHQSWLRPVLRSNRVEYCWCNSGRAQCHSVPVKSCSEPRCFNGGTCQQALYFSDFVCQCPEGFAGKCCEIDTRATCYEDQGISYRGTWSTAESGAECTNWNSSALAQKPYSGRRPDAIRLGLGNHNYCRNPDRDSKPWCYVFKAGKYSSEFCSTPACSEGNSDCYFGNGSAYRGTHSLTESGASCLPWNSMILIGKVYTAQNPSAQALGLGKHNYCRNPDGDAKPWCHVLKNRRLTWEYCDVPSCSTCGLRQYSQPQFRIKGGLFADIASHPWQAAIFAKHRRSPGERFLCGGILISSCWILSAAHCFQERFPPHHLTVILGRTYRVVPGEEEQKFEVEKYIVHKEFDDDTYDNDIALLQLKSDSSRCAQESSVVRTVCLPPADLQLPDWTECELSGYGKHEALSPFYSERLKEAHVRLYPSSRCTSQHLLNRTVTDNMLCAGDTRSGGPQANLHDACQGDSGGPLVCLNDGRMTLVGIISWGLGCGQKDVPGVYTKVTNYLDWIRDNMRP

| Compound | IC50 [1] | TT Ctt2 (concentration which multiplies the coagulation time by 2) [2] | IC50 (human thrombin) | Increase in ACT (number of times that the initial time is increased), 1 hour [3] | Increase in ACT (number of times that the initial time is increased), 4 hours [3] | ACT Ctt2 (concentration which multiplies the coagulation time by 2) [4] | IC50 (Plasmin) | Thrombopenias observed 1 hour after oral administration to dogs (platelets) | IC50 (human urokinase (u-PA)) | Increase in TT (number of times that the initial time is increased), 1 hour [5] | Increase in TT (number of times that the initial time is increased), 4 hours [5] | activity via the oral route, in words (thrombin) |
| --- | --- | --- | --- | --- | --- | --- | --- | --- | --- | --- | --- | --- |
| COC12CCC(c3ccc(C(=O)N[C@@H](CCCNC(=N)N)B(O)O)cc3)(CC1)CC2.Cl [Ex. 3, 1-(R)-[4-(4-Methoxybicyclo[2.2.2]oct-1-yl)benzoylamino]-4-guanidinobutylboronic acid hydrochloride] | 0.81 µM | 0.32 µM | 0.0093 µM | 19 times | 14 times | 1.25 µM | 1.96 µM | 0% | > 33 µM | 16 times | 12 times |  |
| Cl.N=C(N)NCCC[C@H](NC(=O)c1ccc(C23CCC(Cl)(CC2)CC3)cc1)B(O)O [Ex. 6, 1-(R)-[4-(4-Chlorobicyclo[2.2.2]oct-1-yl)benzoylamino]-4-guanidinobutylboronic acid hydrochloride] | 0.29 µM | 0.75 µM | 0.0097 µM | 4 times | 2 times | 3.13 µM | 2.04 µM | 0% | 30 µM | 30 times | 10 times |  |
| Cl.N=C(N)NCCC[C@H](NC(=O)c1ccc(C23CCC(O)(CC2)CC3)cc1)B(O)O [Ex. 12, 1-(R)-[4-(4-Hydroxybicyclo[2.2.2]oct-1-yl)benzoylamino]-4-guanidinobutylboronic acid hydrochloride] | 0.093 µM | 0.18 µM | 0.0066 µM | > 30 times | > 30 times | 0.78 µM | 2.1 µM | 40% | 15.4 µM | 24 times | 19 times |  |
| N=C(N)NCCC[C@H](NC(=O)C1(C(=O)NCc2ccccc2)CCCC1)B(O)O.O=S(=O)(O)c1ccccc1 [Ex. 22, 1-(R)-(1-Benzylaminocarbonylcyclopentanecarboxamido)-4-guanidinobutylboronic acid benzenesulfonate] | 1.35 µM | 0.30 µM | 0.0049 µM | 6 times | 2 times | 1.58 µM | 8.63 µM | 0% | 0.78 µM | 20 times | 8 times |  |
| COC12CCC(c3cccc(C(=O)N[C@@H](CCCNC(=N)N)B(O)O)c3)(CC1)CC2.Cl [Ex. 51, 1-(R)-[3-(4-Methoxybicyclo[2.2.2]oct-1-yl)benzoylamino]-4-guanidinobutylboronic acid hydrochloride] | 1.54 µM | 0.15 µM | 0.0027 µM | 3 times | 2 times | 0.84 µM | 0.531 µM | 0% | 5.61 µM | 22 times | 19 times |  |
| Cl.N=C(N)NCCC[C@H](NC(=O)c1cccc(C23CCC(O)(CC2)CC3)c1)B(O)O [Ex. 69, 1-(R)-[3-(4-Hydroxybicyclo[2.2.2]oct-1yl)benzoylamino]-4-guanidinobutylboronic acid hydrochloride] | 0.709 µM | 0.17 µM | 0.0065 µM | 4 times | 3 times | 0.56 µM | 0.692 µM | 0% | > 33 µM | 18 times | 15 times |  |
| N=C(N)NCCC[C@H](NC(=O)C1(C(=O)NCCc2ccccc2)CCCC1)B(O)O.O=S(=O)(O)c1ccccc1 [Ex. 83, 1-(R)-(1-Phenethylaminocarbonylcyclopentanecarboxamido)-4-guanidinobutylboronic acid benzenesulfonate] | 1.56 µM | 0.13 µM | 0.0024 µM | 7 times | 4 times | 0.56 µM | 6.88 µM | 0% | 1.2 µM | > 30 times | 18 times |  |
| COc1cccc(CCNC(=O)C2(C(=O)N[C@@H](CCCNC(=N)N)B(O)O)CCCC2)c1.O=S(=O)(O)c1ccccc1 [Ex. 94, 1-(R)-[1-(3-Methoxyphenethylaminocarbonyl)cyclopentanecarboxamido]-4-guanidinobutylboronic acid benzenesulfonate] | 1.41 µM | 0.32 µM | 0.0039 µM | 9 times | 4 times | 1.77 µM | 4.06 µM | 0% | 1 µM | 17 times | 21 times |  |
| COc1ccc(CCNC(=O)C2(C(=O)N[C@@H](CCCNC(=N)N)B(O)O)CCCC2)cc1OC [Ex. 103, 1-(R)-[1-(3,4-Dimethoxyphenethylaminocarbonyl)cyclopentanecarboxamido]-4-guanidinoboronic acid benzensulfonate] | 1.44 µM | 0.29 µM | 0.004 µM | 6 times | 4 times | 1.67 µM | 3.28 µM | 0% | 1.02 µM | > 30 times | 24 times |  |
| hirudin |  |  |  |  |  |  |  |  |  |  |  | not being active via the oral route |
| hirulog-1: Direct inhibitors of thrombin, currently in clinical development [reference compound] |  |  |  |  |  |  |  |  |  |  |  | not being active via the oral route |
